Experimental data from patent publication US8946142B2, “Beta-arrestin effectors and compositions and methods of use thereof” (Trevena, Inc., priority 2012, dated 2015).
Where a SMILES comes first, the peptide text is derived from it. [ ]: non-standard residue; d: D form. The star is where a group is joined. Ac6c = NC1(C(=O)O)CCCCC1; Aib = CC(C)(N)C(=O)O; NHiPr = CC(C)N*; Sar = CNCC(=O)O

Experiments:
Type in all cases: cell-based
human AT1R [1] = biological target: T1, human AT1R (Homo sapiens, UniProt P30556); test: IP1 accumulation assay (IP1 G-protein assay), human AT1R; conditions: for Emax: read-out: Span (relative to hAngII)
T1 sequence (P30556 1-359): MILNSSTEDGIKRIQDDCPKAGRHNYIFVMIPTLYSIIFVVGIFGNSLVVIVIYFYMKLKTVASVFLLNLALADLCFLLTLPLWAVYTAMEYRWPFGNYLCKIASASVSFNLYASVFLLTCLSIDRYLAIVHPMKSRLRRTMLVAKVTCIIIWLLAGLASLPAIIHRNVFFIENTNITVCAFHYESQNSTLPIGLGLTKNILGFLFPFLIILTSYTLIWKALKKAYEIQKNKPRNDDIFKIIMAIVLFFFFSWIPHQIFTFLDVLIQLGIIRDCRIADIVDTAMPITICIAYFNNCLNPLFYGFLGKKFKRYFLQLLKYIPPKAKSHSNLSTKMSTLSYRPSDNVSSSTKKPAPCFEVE
Protocol: (§1) A secondary measure of G protein coupling efficacy was also performed. IP3 is generated by activation of phospholipase C by Gα-q. IP3 is degraded to IP1, which can be forced to accumulate in cells by blocking degradation with lithium chloride. Thus we measured accumulation of IP1 to determine ligand efficacy for G protein activation.
(§2) IP1 accumulation generated by human and rat angiotensin 2 type 1 receptor (human AT1R and rat AT1aR, respectively) was measured with IP-One Tb kits purchased from Cisbio and used per the manufacturer's instructions. Clonal stably transfected cell lines expressing human AT1TR or rat AT1aR were used for all experiments.
(§3) For assays, 4,000-8,000 cells were seeded per well in 384-well small-volume microplates “HiBase” small-volume plate in volumes of 20 uL and allowed to grow overnight at 37° C. in 5% CO2. Cell growth media was then replaced with stimulation buffer supplied by Cisbio containing 50 mM lithium chloride. […] For agonist detection, peptides were then further diluted in stimulation buffer to add peptide to the cells to reach final concentrations ranging from 100 uM to 1 pM. Following addition of peptides, cells were incubated at 37° C. in 5% CO2 for 30 minutes and then lysed with 4 uL of pre-mixed HTRF IP-One reagents diluted per manufacturer's instructions (Cisbio). Microplates were incubated for 60-90 minutes at room temperature and then time-resolved fluorescence intensities were measured using a PHERAstar Plus microplate reader from BMG Labtech. IP1 accumulation was measured as change in ratio of time-resolved fluorescent intensities measured at 665 nm and 620 nm.

rat AT1aR [2] = biological target: T2, rat AT1aR (Rattus norvegicus, UniProt P25095); test: IP1 accumulation assay (IP1 G-protein assay), rat AT1aR; conditions: for Emax: read-out: Span (relative to hAngII)
T2 sequence (P25095 1-359): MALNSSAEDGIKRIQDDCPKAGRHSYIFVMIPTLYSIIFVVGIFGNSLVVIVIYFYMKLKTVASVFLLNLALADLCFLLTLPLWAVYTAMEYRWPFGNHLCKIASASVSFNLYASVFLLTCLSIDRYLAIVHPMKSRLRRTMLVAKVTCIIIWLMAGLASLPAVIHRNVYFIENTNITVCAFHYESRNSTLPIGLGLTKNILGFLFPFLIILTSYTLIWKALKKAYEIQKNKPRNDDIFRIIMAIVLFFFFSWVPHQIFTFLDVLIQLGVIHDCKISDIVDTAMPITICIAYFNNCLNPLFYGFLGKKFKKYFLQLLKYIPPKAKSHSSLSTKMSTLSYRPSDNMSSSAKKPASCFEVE
Protocol: as §1, §2, §3

human AT1R [3] = biological target: T1, human AT1R; test: beta-arrestin2 recruitment assay (PathHunter), human AT1R; conditions: for Emax: 1 h, read-out: Span (relative to hAngII)
Protocol: (§4) The proximal event in β-arrestin function mediated by GPCRs is recruitment to receptors following ligand binding and receptor phosphorylation by GRK's. Thus, the measure of β-arrestin recruitment was used to determine ligand efficacy for β-arrestin function.
(§5) B-arrestin-2 recruitment to the human and rat angiotensin 2 type 1 receptor (human AT1R and rat AT1aR, respectively) was measured with the PathHunter™ μl-arrestin assay (DiscoveRx Corporation, Fremont Calif.). Cells, plasmid(s), and detection reagent(s) were purchased from DiscoveRx, and assays were performed per manufacturer's instructions. Human AT1R and rat AT1aR were cloned into the pCMV-ProLink vector, verified by sequencing, and transfected into PathHunter β-arrestin HEK293 cells. Stably transfected clonal cell lines were selected with Hygromycin and G418. These clonal cell lines were used for all experiments.
(§6) For assays, 4,000-8,000 cells were seeded per well in 384-well microplates “HiBase” small-volume plate in volumes of 20 uL and grown overnight in the incubator (37° C., 5% CO2, saturated humidity). Peptides were dissolved in DMSO to a concentration of 10 mM. Peptides were then further diluted in assay buffer (Hank's balanced salt solution with 20 mM HEPES) to add peptide to the cells to reach final concentrations ranging from 100 μM to 1 pM. Cells were then incubated for 60 minutes at 37° C. in 5% CO2, followed by addition of 2 μL of PathHunter Detection Reagent to each well. The microplates were then incubated at room temperature for 60 minutes, and then luminescence was measured using a PHERAstar Plus microplate reader from BMG Labtech. B-arrestin-2 recruitment to receptors was measured as relative luminescence intensity expressed in arbitrary units.

rat AT1aR [4] = biological target: T2, rat AT1aR; test: beta-arrestin2 recruitment assay (PathHunter), rat AT1aR; conditions: for Emax: 1 h, read-out: Span (relative to hAngII)
Protocol: as §4, §5, §6

Structure (SMILES) | EC50 (human AT1R [1]; read-out: EC50) [nM] | EC50 (human AT1R [1]; read-out: pEC50 (converted)) [nM] | EC50 (rat AT1aR [2]; read-out: EC50) [nM] | Emax (rat AT1aR [2]) [%] | EC50 (rat AT1aR [2]; read-out: pEC50 (converted)) [nM] | Emax (human AT1R [3]) [%] | EC50 (human AT1R [3]; read-out: EC50) [nM] | EC50 (human AT1R [3]; read-out: pEC50 (converted)) [nM] | Emax (rat AT1aR [4]) [%] | EC50 (rat AT1aR [4]; read-out: EC50) [nM] | EC50 (rat AT1aR [4]; read-out: pEC50 (converted)) [nM] | Emax (human AT1R [1]) [%] | EC50 (nM) (rat AT1aR [4]) | pEC50 (rat AT1aR [4])
CNCC(=O)N[C@@H](CCCNC(=N)N)C(=O)N[C@H](C(=O)N[C@@H](Cc1ccc(O)cc1)C(=O)N1CCC[C@H]1C(=O)N[C@@H](Cc1c[nH]cn1)C(=O)N1CCC[C@H]1C(=O)N[C@@H](C)C(=O)O)C(C)C [SEQ ID NO: 1, Sar-Arg-Val-Tyr-Pro-His-Pro-Ala] (H-[Sar]RVYPHPA-OH) | > 10000 | > 0.631 | > 0.6 | < 104 | > 0.631 | < 101 | > 3.2 | > 3.16 | < 105 | > 3.2 | > 3.16 | – | – | –
CNCC(=O)N[C@@H](CCCNC(=N)N)C(=O)N[C@H](C(=O)N[C@@H](Cc1ccc(O)cc1)C(=O)NC1(C(=O)N[C@@H](Cc2c[nH]cn2)C(=O)N2CCC[C@H]2C(=O)N[C@@H](C)C(=O)O)CCCCC1)C(C)C [SEQ ID NO: 2, Sar-Arg-Val-Tyr-cyHex-His-Pro-Ala] | 10000 | > 0.631 | > 0.6 | – | – | < 101 | > 3.2 | – | < 105 | > 3.2 | – | < 103 | – | –
CNCC(=O)N[C@@H](CCCNC(=N)N)C(=O)N[C@H](C(=O)N[C@@H](Cc1ccc(O)cc1)C(=O)NC1(C(=O)N[C@@H](Cc2c[nH]cn2)C(=O)N2CCC[C@H]2C(=O)N[C@@H](C)C(=O)O)CCCC1)C(C)C [SEQ ID NO: 3, Sar-Arg-Val-Tyr-cyPen-His-Pro-Ala] | > 10000 | > 0.631 | > 0.6 | – | > 0.631 | < 101 | > 3.2 | > 3.16 | < 105 | > 3.2 | > 3.16 | – | – | –
CC[C@H](C)[C@H](NC(=O)[C@@H]1CCCN1C(=O)[C@H](Cc1c[nH]cn1)NC(=O)[C@@H]1CCCN1C(=O)[C@H](Cc1ccc(O)cc1)NC(=O)[C@@H](NC(=O)[C@H](CCCNC(=N)N)NC(=O)CNC)C(C)C)C(=O)O [SEQ ID NO: 4, Sar-Arg-Val-Tyr-Pro-His-Pro-Ile] (H-[Sar]RVYPHPI-OH; N-terminus and C-terminus assumed) | – | – | – | – | – | < 101 | – | – | < 105 | – | – | < 103 | – | –
CNCC(=O)N[C@@H](CCCNC(=N)N)C(=O)N[C@H](C(=O)N[C@@H](Cc1ccc(O)cc1)C(=O)N1CCC[C@H]1C(=O)N[C@@H](Cc1c[nH]cn1)C(=O)N1CCC[C@H]1C(=O)N[C@@H](CO)C(=O)O)C(C)C [SEQ ID NO: 8, Sar-Arg-Val-Tyr-Pro-His-Pro-Ser] (H-[Sar]RVYPHPS-OH; N-terminus and C-terminus assumed) | – | – | – | – | – | < 101 | – | – | < 105 | – | – | < 103 | – | –
CNCC(=O)N[C@@H](CCCNC(=N)N)C(=O)N[C@H](C(=O)N[C@@H](Cc1ccc(O)cc1)C(=O)NC(C)(C)C(=O)N[C@@H](Cc1c[nH]cn1)C(=O)N1CCC[C@H]1C(=O)N[C@H](C(=O)O)C(C)C)C(C)C [SEQ ID NO: 33, Sar-Arg-Val-Tyr-AA01-His-Pro-Val] (H-[Sar]RVY[Aib]HPV-OH) | > 1.3 | > 0.631 | – | – | – | < 101 | > 3.2 | > 3.16 | < 105 | > 3.2 | > 3.16 | < 103 | – | –
CNCC(=O)N[C@@H](CCCNC(=N)N)C(=O)N[C@H](C(=O)N[C@@H](Cc1ccc(O)cc1)C(=O)NC1(C(=O)N[C@@H](Cc2c[nH]cn2)C(=O)N2CCC[C@H]2C(=O)N[C@@H](Cc2c[nH]cn2)C(=O)O)CCCCC1)C(C)C [SEQ ID NO: 37, Sar-Arg-Val-Tyr-cyHex-His-Pro-His] (H-[Sar]RVY[Ac6c]HPH-OH) | – | – | > 0.6 | < 104 | > 0.631 | < 101 | > 3.2 | > 3.16 | < 105 | > 3.2 | > 3.16 | – | – | –
CNCC(=O)N[C@@H](CCCNC(=N)N)C(=O)N[C@H](C(=O)N[C@@H](Cc1ccc(O)cc1)C(=O)NC1(C(=O)N[C@@H](Cc2c[nH]cn2)C(=O)N2CCC[C@H]2C(=O)N[C@@H](CCCNC(=N)N)C(=O)O)CCCCC1)C(C)C [SEQ ID NO: 42, Sar-Arg-Val-Tyr-cyHex-His-Pro-Arg] (H-[Sar]RVY[Ac6c]HPR-OH) | > 1.3 | > 0.631 | – | – | – | < 101 | > 3.2 | > 3.16 | < 105 | > 3.2 | > 3.16 | < 103 | – | –
CNCC(=O)N[C@@H](CCCNC(=N)N)C(=O)N[C@H](C(=O)N[C@@H](Cc1ccc(O)cc1)C(=O)NC1(C(=O)N[C@@H](Cc2c[nH]cn2)C(=O)N2CCC[C@H]2C(=O)N[C@@H](CC(=O)O)C(=O)O)CCCCC1)C(C)C [SEQ ID NO: 44, Sar-Arg-Val-Tyr-cyHex-His-Pro-Asp] (H-[Sar]RVY[Ac6c]HPD-OH) | – | – | > 0.6 | < 104 | > 0.631 | < 101 | > 3.2 | > 3.16 | < 105 | > 3.2 | > 3.16 | – | – | –
CNCC(=O)N[C@@H](CCSC)C(=O)N[C@H](C(=O)N[C@@H](Cc1ccc(O)cc1)C(=O)NC1(C(=O)N[C@@H](Cc2c[nH]cn2)C(=O)N2CCC[C@H]2C(=O)N[C@@H](C)C(=O)O)CCCCC1)C(C)C [SEQ ID NO: 45, Sar-Met-Val-Tyr-cyHex-His-Pro-Ala] (H-[Sar]MVY[Ac6c]HPA-OH; N-terminus and C-terminus assumed) | – | – | – | – | – | < 101 | – | – | < 105 | – | – | < 103 | – | –
CNCC(=O)N[C@@H](CCCNC(=N)N)C(=O)N[C@H](C(=O)N[C@@H](Cc1ccc(O)cc1)C(=O)NC1(C(=O)N[C@@H](Cc2c[nH]cn2)C(=O)N2CCC[C@H]2C(=O)NC(C)C)CCCCC1)C(C)C [SEQ ID NO: 46, Sar-Arg-Val-Tyr-cyHex-His-Pro-NH-i-Pr] (H-[Sar]RVY[Ac6c]HP-NHiPr) | > 1.3 | > 0.631 | – | – | – | < 101 | > 3.2 | > 3.16 | < 105 | > 3.2 | > 3.16 | < 103 | – | –
CNCC(=O)N[C@@H](CCCCN)C(=O)N[C@H](C(=O)N[C@@H](Cc1ccc(O)cc1)C(=O)NC1(C(=O)N[C@@H](Cc2c[nH]cn2)C(=O)N2CCC[C@H]2C(=O)N[C@@H](C)C(=O)O)CCCCC1)C(C)C [SEQ ID NO: 51, Sar-Lys-Val-Tyr-cyHex-His-Pro-Ala] (H-[Sar]KVY[Ac6c]HPA-OH) | > 1.3 | > 0.631 | – | – | – | < 101 | > 3.2 | > 3.16 | < 105 | > 3.2 | > 3.16 | < 103 | – | –
CCCCc1nc(Cl)c(CO)n1Cc1ccc(-c2ccccc2-c2nn[nH]n2)cc1 [losartan, reference compound] | – | – | – | < 104 | – | – | – | – | – | – | – | – | Inactive | Inactive
